Measured values: article PMC10709440, “High-throughput ligand profile characterization in novel cell lines expressing seven heterologous insect olfactory receptors for the detection of volatile plant biomarkers” (Scientific Reports, 2023)
Read-outs that look alike come from different tables or passages of the source.

How the values were obtained:
Drosophila OR47a = target: T1, Drosophila OR47a (Drosophila melanogaster, UniProt P81921); test: Calcium ion fluorescence (GCaMP6) assay, OR47a stable HEK293 cell line; format: cell-based; settings: for OR47a response (VUAA1-normalized) at 1 μM / OR47a response (VUAA1-normalized) at 10 μM / OR47a response (VUAA1-normalized) at 100 μM / Average response: OR47a cell line; for OR47a response (VUAA1-normalized) at 1 μM: VOC concentration 1 μM; for OR47a response (VUAA1-normalized) at 10 μM: VOC concentration 10 μM; for OR47a response (VUAA1-normalized) at 100 μM: VOC concentration 100 μM; for Average response: mean of biological replicates
T1 construct: expressed in transfected cells
T1 sequence (P81921 1-385): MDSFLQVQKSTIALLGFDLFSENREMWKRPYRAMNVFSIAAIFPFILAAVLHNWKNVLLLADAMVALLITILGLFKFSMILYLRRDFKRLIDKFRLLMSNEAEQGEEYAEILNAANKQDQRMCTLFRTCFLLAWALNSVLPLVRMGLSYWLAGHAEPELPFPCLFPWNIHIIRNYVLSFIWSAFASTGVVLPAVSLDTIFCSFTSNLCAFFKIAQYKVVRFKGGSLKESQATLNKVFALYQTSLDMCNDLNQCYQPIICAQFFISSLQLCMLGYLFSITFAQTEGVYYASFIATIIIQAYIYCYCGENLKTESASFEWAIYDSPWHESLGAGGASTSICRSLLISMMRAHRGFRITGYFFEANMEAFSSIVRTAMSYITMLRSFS
T1 sequence (Q9VNB5 1-486 partner): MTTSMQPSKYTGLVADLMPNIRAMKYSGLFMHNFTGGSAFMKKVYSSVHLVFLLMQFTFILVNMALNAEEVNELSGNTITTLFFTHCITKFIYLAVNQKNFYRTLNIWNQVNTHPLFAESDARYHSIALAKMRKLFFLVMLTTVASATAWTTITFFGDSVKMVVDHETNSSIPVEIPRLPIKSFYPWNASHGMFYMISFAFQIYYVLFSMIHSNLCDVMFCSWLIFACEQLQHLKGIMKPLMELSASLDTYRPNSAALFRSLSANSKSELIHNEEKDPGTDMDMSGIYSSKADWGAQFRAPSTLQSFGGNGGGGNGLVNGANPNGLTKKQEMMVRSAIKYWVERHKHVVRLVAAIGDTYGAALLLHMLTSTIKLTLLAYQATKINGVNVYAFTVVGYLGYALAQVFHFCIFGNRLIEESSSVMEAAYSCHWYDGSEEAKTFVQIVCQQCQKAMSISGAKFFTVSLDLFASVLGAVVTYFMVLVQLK
How it was run: (§1)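 Responses are VUAA1-normalized ΔF: each VOC-evoked calcium signal, (FMAX−F0)/F0 over 30 s after injection, divided by the same line's mean 50 µM VUAA1 response. Cells were doxycycline-induced HEK293 with GCaMP6 and the cognate Drosophila OR, in HEPES buffer pH 7.3; ligands tested 0.01–100 μM.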

Drosophila OR85b = target: T2, Drosophila OR85b (Drosophila melanogaster, UniProt Q9VHQ7); test: Calcium ion fluorescence (GCaMP6) assay, OR85b stable HEK293 cell line; format: cell-based; settings: for OR85b response (VUAA1-normalized) at 1 μM / OR85b response (VUAA1-normalized) at 10 μM / OR85b response (VUAA1-normalized) at 100 μM / Average response: OR85b cell line; for OR85b response (VUAA1-normalized) at 1 μM: VOC concentration 1 μM; for OR85b response (VUAA1-normalized) at 10 μM: VOC concentration 10 μM; for OR85b response (VUAA1-normalized) at 100 μM: VOC concentration 100 μM; for Average response: VUAA1-normalized response, mean of biological replicates
T2 construct: expressed in transfected cells
T2 sequence (Q9VHQ7 1-390): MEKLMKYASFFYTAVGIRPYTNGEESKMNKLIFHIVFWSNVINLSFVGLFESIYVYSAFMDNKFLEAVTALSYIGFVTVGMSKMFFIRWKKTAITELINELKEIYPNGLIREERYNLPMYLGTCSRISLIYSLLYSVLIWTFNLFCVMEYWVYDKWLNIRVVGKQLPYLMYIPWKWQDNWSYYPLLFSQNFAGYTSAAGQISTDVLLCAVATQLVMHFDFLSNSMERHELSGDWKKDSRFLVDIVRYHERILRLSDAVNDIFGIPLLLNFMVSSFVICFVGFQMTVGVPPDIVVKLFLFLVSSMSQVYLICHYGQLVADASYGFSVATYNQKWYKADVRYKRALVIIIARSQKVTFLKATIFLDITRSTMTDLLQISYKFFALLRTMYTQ
T2 sequence (Q9VNB5 1-486 partner): T1 sequence (Q9VNB5 1-486 partner)
How it was run: as §1

[1] = HEK293, read-out: OR47a Average response (VUAA1-normalized)
[2] = ligand concentration 1 (unit not given), threshold 0.05, below shown as 0
[3] = ligand concentration 10 (unit not given), threshold 0.05, below shown as 0
[4] = ligand concentration 100 (unit not given), threshold 0.05, below shown as 0
[5] = ligand concentration 1 (unit not given), 0.05 threshold, values below shown as 0
[6] = ligand concentration 10 (unit not given), 0.05 threshold, values below shown as 0
[7] = ligand concentration 100 (unit not given), 0.05 threshold, values below shown as 0
[8] = HEK293, read-out: OR85b Average response (VUAA1-normalized)
[9] = HEK293, read-out: OR47a response (VUAA1-normalized response)
[10] = concentration 1, normalized fluorescence change, values below 0.05 threshold given as 0
[11] = concentration 10, normalized fluorescence change, values below 0.05 threshold given as 0
[12] = concentration 100, normalized fluorescence change, values below 0.05 threshold given as 0
[13] = HEK293, read-out: OR85b response (VUAA1-normalized response)

SMILES | OR47a response (VUAA1-normalized) at 1 μM (Drosophila OR47a) | OR47a response (VUAA1-normalized) at 10 μM (Drosophila OR47a) | OR47a response (VUAA1-normalized) at 100 μM (Drosophila OR47a) | Average response (Drosophila OR47a; odorant cc. 1 µM) | Average response (Drosophila OR47a; odorant cc. 10 µM) | Average response (Drosophila OR47a; odorant cc. 100 µM) | OR85b response (VUAA1-normalized) at 1 μM (Drosophila OR85b) | OR85b response (VUAA1-normalized) at 10 μM (Drosophila OR85b) | OR85b response (VUAA1-normalized) at 100 μM (Drosophila OR85b) | Average response (Drosophila OR85b; cc. 1 µM) | Average response (Drosophila OR85b; cc. 10 µM) | Average response (Drosophila OR85b; cc. 100 µM) | activation at 1 µM (Drosophila OR47a; [9]) [%] | activation at 10 µM (Drosophila OR47a; [9]) [%] | activation at 100 µM (Drosophila OR47a; [9]) [%] | DF norm AVERAGE OR47a (Drosophila OR47a; [10]) | DF norm AVERAGE OR47a (Drosophila OR47a; [11]) | activation at 1 µM (Drosophila OR85b; [13]) [%] | activation at 10 µM (Drosophila OR85b; [13]) [%] | activation at 100 µM (Drosophila OR85b; [13]) [%] | also measured
CCCOC(C)=O [propyl acetate] | 0.00 | 0.09 | 0.33 | 0.00 | 0.09 | 0.33 | 0.0538 | 0.00 | 0.00 | 0.0538 | 0.0361 | 0.00 |  |  |  |  |  |  |  |  | activation at 1 µM (Drosophila OR47a; [1]): 0%; activation at 10 µM (Drosophila OR47a; [1]): 9%; activation at 100 µM (Drosophila OR47a; [1]): 33%; DF norm AVERAGE OR47a (Drosophila OR47a; [2]): 0; DF norm AVERAGE OR47a (Drosophila OR47a; [3]): 0.0896; DF norm AVERAGE OR47a (Drosophila OR47a; [4]): 0.3345; DF norm AVERAGE OR85b (Drosophila OR85b; [2]): 0.05375; DF norm AVERAGE OR85b (Drosophila OR85b; [3]): 0; DF norm AVERAGE OR85b (Drosophila OR85b; [4]): 0
CC1=CCC23CC1C(C)(C)C2CCC3C (stereo not drawn) [α-funebrene] | 0.00 | 0.00 | 0.00 | 0.00 | 0.00 | 0.00 | 0.10 | 0.00 | 0.26 | 0.10 | 0.00 | 0.26 |  |  |  |  |  |  |  |  | DF norm AVERAGE OR47a (Drosophila OR47a; [5]): 0; DF norm AVERAGE OR47a (Drosophila OR47a; [6]): 0; DF norm AVERAGE OR47a (Drosophila OR47a; [7]): 0; activation at 1 µM (Drosophila OR85b; [8]): 10%; activation at 10 µM (Drosophila OR85b; [8]): 0%; activation at 100 µM (Drosophila OR85b; [8]): 26%; DF norm AVERAGE OR85b (Drosophila OR85b; [5]): 0.09747; DF norm AVERAGE OR85b (Drosophila OR85b; [6]): 0; DF norm AVERAGE OR85b (Drosophila OR85b; [7]): 0.2621
Cc1ccc(C)cc1 [p-xylene] | 0.00 | 0.00 | 0.00 | 0.00 | 0.00 | 0.0271 | 0.00 | 0.15 | 0.06 | 0.0373 | 0.15 | 0.06 |  |  |  |  |  |  |  |  | DF norm AVERAGE OR47a (Drosophila OR47a; [2]): 0; DF norm AVERAGE OR47a (Drosophila OR47a; [3]): 0; DF norm AVERAGE OR47a (Drosophila OR47a; [4]): 0; DF norm AVERAGE OR85b (Drosophila OR85b; [2]): 0; DF norm AVERAGE OR85b (Drosophila OR85b; [3]): 0.1515; DF norm AVERAGE OR85b (Drosophila OR85b; [4]): 0.06066
CCCCCC(O)CC (stereo not drawn) [3-octanol] |  |  |  | 0.00 | 0.00 | 0.09 |  |  |  | 0.00 | 0.00 | 0.0171 | 0 | 0 | 9 | 0 | 0 | 0 | 0 | 0 | DF norm AVERAGE OR47a (Drosophila OR47a; [12]): 0.08889; DF norm AVERAGE OR85b (Drosophila OR85b; [10]): 0; DF norm AVERAGE OR85b (Drosophila OR85b; [11]): 0; DF norm AVERAGE OR85b (Drosophila OR85b; [12]): 0
CC1=CCC2CC1C2(C)C (stereo not drawn) [alpha-pinene] |  |  |  | 0.04 | 0.00 | 0.0468 |  |  |  | 0.03 | 0.00 | 0.0358 | 0 | 0 | 0 |  |  | 0 | 0 | 0 | DF norm AVERAGE OR47a (Drosophila OR47a; [2]): 0; DF norm AVERAGE OR47a (Drosophila OR47a; [3]): 0; DF norm AVERAGE OR47a (Drosophila OR47a; [4]): 0; DF norm AVERAGE OR85b (Drosophila OR85b; [2]): 0; DF norm AVERAGE OR85b (Drosophila OR85b; [3]): 0; DF norm AVERAGE OR85b (Drosophila OR85b; [4]): 0
C=Cc1ccccc1 [styrene] | 0.00 | 0.00 | 0.00 | 0.0246 | 0.00 | 0.0286 | 0.00 | 0.00 | 0.00 | 0.00 | 0.00 | 0.0181 |  |  |  |  |  |  |  |  | DF norm AVERAGE OR47a (Drosophila OR47a; [5]): 0; DF norm AVERAGE OR47a (Drosophila OR47a; [6]): 0; DF norm AVERAGE OR47a (Drosophila OR47a; [7]): 0; DF norm AVERAGE OR85b (Drosophila OR85b; [5]): 0; DF norm AVERAGE OR85b (Drosophila OR85b; [6]): 0; DF norm AVERAGE OR85b (Drosophila OR85b; [7]): 0
CCCCCC(=O)CC [3-octanone] |  |  |  | 0.0745 | 0.16 | 0.73 |  |  |  | 0.00 | 0.00 | 0.09 | 7.45 | 16 | 73 | 0.07449 | 0.1581 | 0 | 0 | 9 | activation at 1 µM (Drosophila OR47a; [1]): 7%; activation at 10 µM (Drosophila OR47a; [1]): 16%; activation at 100 µM (Drosophila OR47a; [1]): 73%; DF norm AVERAGE OR47a (Drosophila OR47a; [12]): 0.7333; DF norm AVERAGE OR85b (Drosophila OR85b; [10]): 0; DF norm AVERAGE OR85b (Drosophila OR85b; [11]): 0; DF norm AVERAGE OR85b (Drosophila OR85b; [12]): 0.08805
CCCC(O)CC (stereo not drawn) [3-hexanol] |  |  |  | 0.00 | 0.00 | 0.11 |  |  |  | 0.00 | 0.10 | 0.0225 | 0 | 0 | 11 | 0 | 0 | 0 | 10 | 0 | activation at 1 µM (Drosophila OR47a; [1]): 0%; activation at 10 µM (Drosophila OR47a; [1]): 0%; activation at 100 µM (Drosophila OR47a; [1]): 11%; DF norm AVERAGE OR47a (Drosophila OR47a; [12]): 0.1087; DF norm AVERAGE OR85b (Drosophila OR85b; [10]): 0; DF norm AVERAGE OR85b (Drosophila OR85b; [11]): 0.09908; DF norm AVERAGE OR85b (Drosophila OR85b; [12]): 0
COc1cccc(OC)c1 [1,3-dimethoxy benzene] |  |  |  | 0.00 | 0.00 | 0.0217 |  |  |  | 0.00 | 0.0268 | 0.0367 | 0 | 0 | 0 | 0 | 0 | 0 | 0 | 0 | DF norm AVERAGE OR47a (Drosophila OR47a; [12]): 0; DF norm AVERAGE OR85b (Drosophila OR85b; [10]): 0; DF norm AVERAGE OR85b (Drosophila OR85b; [11]): 0; DF norm AVERAGE OR85b (Drosophila OR85b; [12]): 0
